In patent US11395857B2, “Radiolabeled melanocortin 1 receptor-specific alpha-melanocyte-stimulating hormone analogues for imaging or therapy” (PROVINCIAL HEALTH SERVICES AUTHORITY, priority 2018, dated 2022):

Test: In vivo stability in mouse urine at 1 h p.i. (radio-HPLC)
Design: species or system C57BL/6J mice
Protocol: All animal experiments were conducted in according to the guidelines established by Canadian Council on Animal Care and approved by Animal Ethics Committee of the University of British Columbia. Mice were housed under pathogen-free conditions and kept on twelve hours light and twelve hours dark cycle in the Animal Research Centre, BC Cancer Research Centre, Vancouver, Canada. C57BL/6J mice were anesthetized by inhalation with 2% isoflurane in 2.0 L/min of oxygen, and approximately 4-6 MBq of [^68Ga]Ga-CCZ01099 or [^68Ga]Ga-CCZ01048 was injected intravenously. The mice were allowed to recover and roam freely in their cages. At 1 h post-injection (p.i.), the mice were euthanized by CO2 inhalation and their urine was collected and analyzed on HPLC for metabolite using the conditions described above. In vivo urine stability of [^68Ga]Ga-CCZ01099 and [^68Ga]Ga-CCZ01048 were 34.0±10.4% and ≥98.0% (n≥3), respectively.
The in vivo stability tests in mouse urine were performed as described in Example 1. […] With systematic reduction in the number of N-methylations for the αMSH analogues, a decrease in in vivo stability was observed.

CCCC[C@H](NC(=O)CN1CCC(NC(=O)CN2CCN(CC(=O)O)CCN(CC(=O)O)CCN(CC(=O)O)CC2)CC1)C(=O)N[C@H]1CC(=O)NCCCC[C@@H](C(N)=O)N(C)C(=O)[C@H](Cc2c[nH]c3ccccc23)N(C)C(=O)[C@H](CCCNC(=N)N)N(C)C(=O)[C@@H](Cc2ccccc2)NC(=O)[C@H](Cc2c[nH]cn2)N(C)C1=O [^68Ga-labeled CCZ01099, metal not drawn]
In vivo urine stability, intact tracer: 34.0±10.4%
